Assay results as given in US10894794B1, “Substituted [1,2,4]triazolo[4,3-a]pyrazines as antidiabetics” (King Abdulaziz University, priority 2019, dated 2021).
Marks after values point to notes of the source that are not given here.

Tests used:
[1] = tested on: 14 h overnight-fasted diabetic mice; experiment: Blood glucose after introduction of food for one hour (meal tolerance test); format: in vivo; conditions: for antihyperglycemic activity after introduction of food (blood glucose rise and total AUC(0-180), in words): 50 mg/kg, 3 h before introduction of food; for Area under the curve AUC(0-180) after meal feeding: Day 1, 50 mg/kg oral, 3 hr pretreated
Procedure: The rational of this test was to determine the ability of the tested compounds to modulate glucose utilization after the introduction of food, after 3 h of drug administration to 14 h overnight-fasted mice (feeding with normal diet was done for 1 hr only, then food was removed during the remaining time of the test). This model is analogous to oral glucose tolerance tests (OGTT) used clinically to evaluate glycemic control, except that the meal was composed of fats, proteins and carbohydrates, and thus was a more realistic representation of the nutritional makeup of normal food. The main purpose is that during meal digestion, food contents e.g. carbohydrates, proteins and fats, were reported to cause an increase in the production of the GLP-I from the L-cells in ileum and colon. The produced GLP-I goes into circulation directly and affects insulin secretion from pancreatic β-cells. Both the GPL-I and insulin levels are expected to be high especially in the presence of a […] inhibitor.
Animals were Distributed Between 17 Groups (n=6) as Follows: • a. Group 1. Animals of this group were overnight-fasted normoglycemic mice and received the vehicle (1% CMC-Na) at a volume of 10 ml/kg/day for 4 consecutive days. • b. Group 2: overnight-fasted diabetic mice received the vehicle (1% CMC-Na) at a volume of 10 ml/kg/day for 4 consecutive days and served as a negative control. • c. Group 3: overnight fasted diabetic mice received sitagliptin at a dose of 50 mg/kg/day for 4 consecutive days in 1% CMC (in a volume of 10 ml/kg) and served as positive control. • d. Groups 4-19: Animals of these groups were overnight-fasted diabetic mice and received the tested compounds 128, 129, 130, 131,140, 142 at a dose of 50 mg/kg/day for 4 consecutive days in 1% CMC (volume of 10 ml/kg). Food was introduced for one hour only then food was removed immediately. Blood glucose levels were determined just before and 3 h after drug administration and then at 0, 60, 120 and 180 min after meal. Blood Sampling and Blood Glucose Determination
Blood samples were collected from the tail vein and the blood glucose level was determined. Curves of blood glucose levels (mg/dL) versus the time intervals (min) were constructed and the area under the curves (AUCs) were calculated by the method of calculation embedded in GraphPad Prism® v. 5.0 (GraphPad Software, San Diego, Calif., USA). AUCs of the curves of the different groups were compared and tested for significance against control groups.

[2] = tested on: 14 h overnight fasted diabetic mice; experiment: Oral glucose tolerance test (OGTT) after single dose; format: in vivo; conditions: for glucose-lowering activity in OGTT compared with sitagliptin (in words): single dose 50 mg/kg; for Relative potency to sitagliptin (OGTT AUC) / AUC in OGTT, % change from diabetic control / AUC in OGTT, Δ from diabetic control / AUC in OGTT, X (arithmetic mean): single oral dose 50 mg/kg; for AUC in OGTT, % change from diabetic control / AUC in OGTT, Δ from diabetic control / AUC in OGTT, X (arithmetic mean): 2 h before glucose loading; for AUC in OGTT, X (arithmetic mean): AUC 0-120 min
Procedure: The oral glucose tolerance test was done in 14 h overnight fasted diabetic mice that were pretreated with a single oral dose of the tested compounds. Each of the tested agents was suspended in sodium carboxymethyl cellulose (CMC-Na) (1% in distilled water) and the dosing volume was adjusted to 10 ml/kg body weight per mouse. Then an oral glucose load was administered (2 g/kg) 2 h after drug treatment. Blood glucose levels were determined using the Accu-check Go® (Roche Diagnostics, Michigan, USA). Blood samples were collected just before drug administration (Fasting Blood glucose), then 2 h after drug treatment and before glucose loading. Blood samples collection was continued at 20, 40, 60 and 120 min intervals after glucose loading.
Animals were distributed between 17 groups (n=6) as follow: • a. Group 1: Animals were 14 h overnight-fasted normoglycemic mice and vehicle-treated (1% CMC-Na) at a dose of 10 ml/kg. • b. Group 2: Overnight fasted diabetic mice received the vehicle (1% CMC-Na) at a dosing volume of 10 ml/kg and served as a negative control. • c. Group 3: Overnight fasted diabetic mice received sitagliptin at a dose of 50 mg/kg in 1% CMC (in a volume of 10 ml/kg) and served as positive control. • a. Groups 4-17: Animals of these groups were overnight fasted diabetic mice received the tested compounds 128, 129, 130, 131, at a dose of 50 mg/kg in 1% CMC (volume of 10 ml/kg).

DPP-IV enzyme = DPP-IV enzyme (Homo sapiens (Human), UniProt P27487); experiment: DPP-IV inhibition assay (Biovision kit, fluorescence); format: biochemical; conditions: read-out: IC50 (DPP4 inhibition)
Chain of DPP-IV enzyme (P27487 whole entry, species assumed): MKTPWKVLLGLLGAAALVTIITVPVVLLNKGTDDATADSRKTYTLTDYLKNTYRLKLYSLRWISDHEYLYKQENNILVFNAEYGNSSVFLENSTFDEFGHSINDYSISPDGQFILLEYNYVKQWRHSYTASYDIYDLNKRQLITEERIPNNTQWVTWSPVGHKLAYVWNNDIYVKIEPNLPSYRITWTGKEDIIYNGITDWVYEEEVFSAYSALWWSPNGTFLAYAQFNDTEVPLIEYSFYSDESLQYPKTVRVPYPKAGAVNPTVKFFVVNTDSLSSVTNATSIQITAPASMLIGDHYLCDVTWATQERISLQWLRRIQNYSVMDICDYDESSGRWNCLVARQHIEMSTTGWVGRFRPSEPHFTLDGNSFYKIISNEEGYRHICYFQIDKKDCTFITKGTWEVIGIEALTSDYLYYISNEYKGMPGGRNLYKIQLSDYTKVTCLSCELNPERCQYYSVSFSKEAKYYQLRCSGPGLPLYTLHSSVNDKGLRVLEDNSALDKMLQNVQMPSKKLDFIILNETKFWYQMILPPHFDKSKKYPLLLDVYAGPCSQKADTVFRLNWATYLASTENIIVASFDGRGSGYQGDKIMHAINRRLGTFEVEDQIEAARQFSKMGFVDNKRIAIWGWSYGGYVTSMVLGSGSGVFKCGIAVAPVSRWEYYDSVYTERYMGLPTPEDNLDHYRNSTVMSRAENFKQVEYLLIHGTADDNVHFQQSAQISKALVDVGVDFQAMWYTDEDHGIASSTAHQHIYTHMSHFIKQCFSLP
Procedure: Sitagliptin phosphate monohydrate and the different tested compounds were dissolved in dimethyl sulphoxide (DMSO) and diluted with tris buffer (pH 8.0, 50 mM) to achieve the required concentrations. DPP-IV inhibition assay was conducted using a kit purchased from Biovision (Milpitas, Calif., USA). Briefly, DPP-IV enzyme was diluted with tris buffer and pipetted 50 μl into glass mini-cells. Subsequently the 25 μl of tris buffer, sitagliptin phosphate monohydrate or the tested compounds was added and incubated at 37° C. for 20 min protected from light. Finally, a volume of 25 μl of DPP-IV substrate was added into each tube. The fluorescence generated from hydrolysis of the substrate was read at Ex/Em=360/460 nm using Modulus® single tube multimode reader (Promega, USA). Baseline fluorescence was recorded before incubation (R1) and 20 min after incubation (R2). Percentage inhibition was calculated according to the following equation: […] where, ΔRFU=R2−R1 and EC is the enzyme control (enzyme solution without inhibitor) which is considered 100% activity.
The standard DPP-IV inhibitor drug sitagliptin was employed as positive control. […] Sigmoidal dose-response curves for DPP-IV % inhibition versus log concentrations were plotted using Graphpad prism software, version 5.00 (GraphPad Software, Inc. La Jolla, Calif., USA). The IC50 value corresponds to the concentration of sample needed to inhibit DPP-IV by 50%.

[3] = tested on: overnight fasted diabetic mice; experiment: OGTT after multiple doses (6 consecutive days); format: in vivo; conditions: for AUC in OGTT, % change from diabetic control / AUC in OGTT, Δ from diabetic control / Relative potency to sitagliptin (OGTT AUC) / AUC in OGTT, X (arithmetic mean): 50 mg/kg oral for six days; for AUC in OGTT, X (arithmetic mean): 2 h before glucose loading, AUC 0-120 min; for relative potency in OGTT compared with sitagliptin (in words): 6 consecutive days, 50 mg/kg
Procedure: The tested compounds were given daily by oral gavage for 6 consecutive days. On day 6, the overnight fasted diabetic mice were pretreated with the 6th oral dose of the tested compounds. Then an oral glucose was loaded (2 g/kg/10 ml b.w.) 2 h after drug treatment. Blood glucose levels were determined using the Accu-check Go® (Roche Diagnostics, Michigan, USA). Samples were collected just before drug administration (Fasting Blood glucose), then 2 h after drug treatment and before glucose administration. Sample collection was continued at 20, 40, 60 and 120 min intervals after glucose loading.
• b. Group 1: Animals of this group are 14 h overnight-fasted normoglycemic mice received the vehicle (1% CMC-Na) at a dosing volume of 10 ml/kg/day for six consecutive days. • c. Group 2: Overnight-fasted diabetic mice received the vehicle (1% CMC-Na) at a dosing volume of 10 ml/kg/day for six consecutive days and served as a negative control. • d. Group 3: Overnight-fasted diabetic mice received sitagliptin at a dose of 50 mg/kg/day for six consecutive days and served as positive control. • e. Groups 4-17: Animals in these groups were overnight-fasted diabetic mice and received the tested compounds 128, 129, 130, 131, at a dose of 50 mg/kg/day for six consecutive days (volume of 10 ml/kg). Effect on Blood Glucose Level after Introduction of Food for One Hour (≈Meal Tolerance Test) Rational of the Test

Row | IC50 (DPP-IV enzyme) | Compound | antihyperglycemic activity after introduction of food (blood glucose rise and total AUC(0-180), in words) [1] | Area under the curve AUC(0-180) after meal feeding [1] | glucose-lowering activity in OGTT compared with sitagliptin (in words) [2] | Relative potency to sitagliptin (OGTT AUC) [2] | AUC in OGTT, % change from diabetic control [2] | AUC in OGTT, Δ from diabetic control [2] | AUC in OGTT, X (arithmetic mean) [2] | AUC in OGTT, % change from diabetic control [3] | AUC in OGTT, Δ from diabetic control [3] | Relative potency to sitagliptin (OGTT AUC) [3] | AUC in OGTT, X (arithmetic mean) [3] | relative potency in OGTT compared with sitagliptin (in words) [3]
1 | 0.21 nM | C[C@H](NC(=O)c1cccc(Cl)c1)C(=O)N1CCn2c(nnc2C(F)(F)F)C1 [GLP-130] | significant antihyperglycemic activity | 50478 ± mg · dL^−1 · min | higher glucose-lowering activity than sitagliptin | 1.32 | −32.01% | -16345 mg·min/dL | 34720* mg · dL^−1 · min | −34.11% | -17983 mg·min/dL | 0.90 | 34672* mg · dL^−1 · min | comparable or higher relative potency than sitagliptin
2 | 1.84 nM | O=C(CN1CCn2c(nnc2C(F)(F)F)C1)NC1CCCCC1 [GLP-140] | significant antihyperglycemic activity | 72873 ± mg · dL^−1 · min | less potent than sitagliptin | 0.69 | −16.89% | -8626 mg·min/dL | 42439 mg·min/dL | −38.32% | -20180 mg·min/dL | 1.01 | 32475* mg · dL^−1 · min | comparable or higher relative potency than sitagliptin
3 | 0.18 nM | N#Cc1cccc(NC(=O)CN2CCn3c(nnc3C(F)(F)F)C2)c1 [GLP-142] | significant antihyperglycemic activity | – | less potent than sitagliptin | 0.76 | −18.51% | -9452 mg·min/dL | 41613 mg·min/dL | −19.4% | -10216 mg·min/dL | 0.513 | 42439* mg · dL^−1 · min | –
